We go through nine molecules from patent publication US8084621B2, “3-Pyrrolo[b]cyclohexylene-2-dihydroindolinone derivatives and uses thereof” (Jiangsu Simcere Pharmaceutical R&D Co. Ltd., priority 2006, dated 2011).

SMILES strings stand for the structures.

T1 sequence (P09619 33-1106): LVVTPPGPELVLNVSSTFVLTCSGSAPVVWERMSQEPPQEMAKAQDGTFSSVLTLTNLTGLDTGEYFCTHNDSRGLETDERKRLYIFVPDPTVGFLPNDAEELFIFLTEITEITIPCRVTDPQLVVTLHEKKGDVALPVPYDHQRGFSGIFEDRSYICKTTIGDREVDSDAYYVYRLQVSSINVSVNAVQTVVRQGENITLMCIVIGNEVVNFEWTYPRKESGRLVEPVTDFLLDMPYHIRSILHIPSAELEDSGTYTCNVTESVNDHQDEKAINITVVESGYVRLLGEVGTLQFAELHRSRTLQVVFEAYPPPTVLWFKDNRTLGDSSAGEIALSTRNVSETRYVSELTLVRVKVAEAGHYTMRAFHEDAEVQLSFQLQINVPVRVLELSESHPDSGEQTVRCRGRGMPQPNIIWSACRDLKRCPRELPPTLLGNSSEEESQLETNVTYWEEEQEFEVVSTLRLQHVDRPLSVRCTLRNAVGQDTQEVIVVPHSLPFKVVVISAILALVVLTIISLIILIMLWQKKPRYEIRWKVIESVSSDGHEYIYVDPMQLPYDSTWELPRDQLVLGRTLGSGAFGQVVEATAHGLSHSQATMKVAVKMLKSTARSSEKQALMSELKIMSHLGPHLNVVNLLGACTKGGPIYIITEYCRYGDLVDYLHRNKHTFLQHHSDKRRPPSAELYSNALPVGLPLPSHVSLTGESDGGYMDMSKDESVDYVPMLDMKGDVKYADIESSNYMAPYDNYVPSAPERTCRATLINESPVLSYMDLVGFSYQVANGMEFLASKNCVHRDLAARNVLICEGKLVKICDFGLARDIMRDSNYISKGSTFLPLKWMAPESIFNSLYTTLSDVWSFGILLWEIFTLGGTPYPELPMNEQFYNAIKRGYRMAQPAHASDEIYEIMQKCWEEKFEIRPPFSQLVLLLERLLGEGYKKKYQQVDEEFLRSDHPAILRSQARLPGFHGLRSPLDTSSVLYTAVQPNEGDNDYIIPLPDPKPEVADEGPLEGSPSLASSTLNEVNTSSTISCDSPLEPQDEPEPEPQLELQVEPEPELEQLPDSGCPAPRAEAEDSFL

The test has as its target T1, PDGFR-β (Homo sapiens, UniProt P09619).
T1 construct: purchased Cell Signaling Technology CO
Put plainly: Protein kinase activity by ELISA in vitro, PDGFR-β. Format: biochemical. The settings on record: concentration of 10^−7 mol/L; read-out: kinase inhibition ratio, PDGFR-β. From the text:
An ELISA (Enzyme-Linked Immunosorbent Sandwich Assay) procedure may be used to detect and measure the level of protein tyrosine kinase activity. Tyrosine kinases such as VEGFR-2, PDGFR-β and c-Kit etc. catalyze the phosphorylation reaction of ATP and biotin-labeled peptide substrate, which will be ceased when the kinase activity is inhibited. According to the principle of ELISA, a monoclonal antibody can react with phosphorylated substrate specially, so biotin-labeled substrate is binded to streptavidin-coated ELISA plate, and then binded to a HRP-labeled goat anti-mouse antibody. Finally TMB is added for a color reaction and the value of A450-A630 is read by ELISA plate reader. The OD value can reflect the inhibitory activity of the VEGFR-2, PDGFR-β, c-Kit tyrosine kinases etc. treated with the test compounds at the different concentrations. So, the assay may be used to measure the inhibition ratio of the compounds for the tyrosine kinase activity. Similar assays can be designed along the same lines for any PK using techniques well known in the art. Tyrosine kinases such as VEGFR-2, PDGFR-β and c-Kit etc. catalyze the phosphorylation reaction of ATP and biotin-labeled peptide substrate, which will be ceased when the kinase activity is inhibited. According to the principle of ELISA, a monoclonal antibody can react with phosphorylated substrate specially, so biotin-labeled substrate is binded to streptavidin-coated ELISA plate, and then binded to a HRP-labeled goat anti-mouse antibody. Finally TMB is added for a color reaction and the value of A450-A630 is read by ELISA plate reader. The OD value can reflect the inhibitory activity of the VEGFR-2, PDGFR-β c-Kit tyrosine kinases treated with the test compounds at the different concentrations. So, the assay may be used to measure the inhibition ratio of the compounds for the tyrosine kinase activity. Similar assays can be designed along the same lines for any PK using techniques well known in the art. VEGF Receptor 2, PDGF Receptor-beta and c-kit kinase assay kit (include kinase, 1.25M DTT, substrate peptide, 10 mM ATP, P-[…] Mouse antibody, 4×HTScan tyrosine kinase buffer), Cell Signaling Technology CO.; HRP labeled goat anti mouse IgG, Protein Tech CO.; TMB, Pierce CO.; Streptavidin Microtitration Plate, Greiner Bio-one CO.; Infinite M200 Reader, Tecan CO. 1.2.1 Immediately transfer enzyme from -80° C. to ice. Allow enzyme to thaw on ice then at 4° C. and centrifugate transiently to the bottom of centrifuge tube, then lay back on ice quickly 1.2.2 Add 10 μl of DTT (1.25 M) to 2.5 ml of 4×HTScan tyrosine kinase buffer (240 mM HEPES pH 7.5, 20 mM MgCl2, 20 mM MnCl2, 12 μM Na3VO4). Transfer 0.6 ml of DTT/Kinase buffer to each enzyme tube to make 4× reaction Cocktail. Incubate 12.5 μl of the 4× reaction cocktail with 12.5 μl/well prediluted compound of interest for 5 minutes at room temperature, and set blank control, free-enzyme control, negative control and positive control. 1.2.3 Add 10 μl 10 mM ATP to 1.25 ml 6 μM substrate peptide. Dilute the mixture with dH20 to 2.5 ml to make 2×ATP/substrate cocktail. Add 25 μl of 2×ATP/substrate cocktail to 25 μl/well preincubated reaction cocktail/compound. Incubate reaction plate at room temperature for 30 minutes. 1.2.4 Add 50 μl/well stop Buffer (50 mM EDTA, pH 8) to stop the reaction. Transfer 25 μl of each reaction and 75 μl dH2O/well to a 96-well streptavidin coated plate and incubate at room temperature for 60 minutes. Wash three times with 200 μl/well PBS/T(1×PBS, 0.05% Tween-20). 1.2.5 Dilute primary antibody, Phospho-Tyrosine mAb (P-[…]), 1:500 in PBS/T with 1% BSA. Add 100 μl/well primary antibody. Incubate at room temperature for 60 minutes. Wash three times with 200 μl/well PBS/T(1×PBS, 0.05% Tween-20). 1.2.6 Prepare appropriate dilution of HRP labeled secondary antibody, 1:500 in PBS/T with 1% BSA. Add 100 μl/well secondary antibody solution. Incubate at room temperature for 30 minutes. […]
Background: An ELISA detects its analyte on a solid surface through an enzyme-linked reagent.
Consider `CCN(CC)CCNC(=O)c1c(C)[nH]c2c1CCC/C2=C1/C(=O)Nc2ccc(F)cc21` [I-2, N-(2-(diethylamino)ethyl)-2-methyl-7-[1,2-dihydro-5-fluoro-2-oxo-3H-indol-(Z)-3-ylidene]-4,5,6,7-tetrahydro-1H-indole-3-carboxamide], for which the inhibition at 0.1 µM was 90%. Turning to `CCN(CC)CCNC(=O)c1c(C)[nH]c2c1CCC/C2=C1/C(=O)Nc2ccc(Cl)cc21` [I-3, N-(2-(diethylamino)ethyl)-2-methyl-7-[1,2-dihydro-5-chloro-2-oxo-3H-indol-(Z)-3-ylidene]-4,5,6,7-tetrahydro-1H-indole-3-carboxamide], the inhibition at 0.1 µM stood at 88%. Regarding `CCN(CC)CCNC(=O)c1c(C)[nH]c2c1CCC/C2=C1/C(=O)Nc2ccc(C)cc21` [I-4, N-(2-(diethylamino)ethyl)-2-methyl-7-[1,2-dihydro-5-methyl-2-oxo-3H-indol-(Z)-3-ylidene]-4,5,6,7-tetrahydro-1H-indole-3-carboxamide], the inhibition at 0.1 µM is 86%. For `CCN(CC)CCNC(=O)c1c(C)[nH]c2c1CCC/C2=C1/C(=O)Nc2ccccc21` [I-5, N-(2-(diethylamino)ethyl)-2-methyl-7-[1,2-dihydro-2-oxo-3H-indol-(Z)-3-ylidene]-4,5,6,7-tetrahydro-1H-indole-3-carboxamide], the inhibition at 0.1 µM was found to be 87%. To `Cc1[nH]c2c(c1C(=O)NCCN(C)C)CCC/C2=C1/C(=O)Nc2ccc(F)cc21` [I-6, N-(2-(dimethylamino)ethyl)-2-methyl-7-[1,2-dihydro-5-fluoro-2-oxo-3H-indol-(Z)-3-ylidene]-4,5,6,7-tetrahydro-1H-indole-3-carboxamide] belongs 85%. As for `Cc1[nH]c2c(c1C(=O)NCCCN(C)C)CCC/C2=C1/C(=O)Nc2ccc(Cl)cc21` [I-7, N-(3-(dimethylamino)propyl)-2-methyl-7-[1,2-dihydro-5-chloro-2-oxo-3H-indol-(Z)-3-ylidene]-4,5,6,7-tetrahydro-1H-indole-3-carboxamide], the figure is 86%.

As for `Cc1[nH]c2c(c1C(=O)NCCO)CCC/C2=C1/C(=O)Nc2ccccc21` [I-8, N-(2-hydroxyethyl)-2-methyl-7-[1,2-dihydro-2-oxo-3H-indol-(Z)-3-ylidene]-4,5,6,7-tetrahydro-1H-indole-3-carboxamide], the inhibition at 0.1 µM worked out at 89%. To `CCN(CC)CC(O)CNC(=O)c1c(C)[nH]c2c1CCC/C2=C1/C(=O)Nc2ccccc21` (stereo not drawn) [I-63, N-(3-(diethylamino)-2-hydroxypropyl)-2-methyl-7-[1,2-dihydro-2-oxo-3H-indol-(Z)-3-ylidene]-4,5,6,7-tetrahydro-1H-indole-3-carboxamide] belongs 87%; to `Cc1[nH]c2c(c1C(=O)NCC(O)CN1CCCC1)CCC/C2=C1/C(=O)Nc2ccccc21` (stereo not drawn) [I-70, N-(2-hydroxy-3-(pyrrolidin-1-yl)propyl)-2-methyl-7-[1,2-dihydro-2-oxo-3H-indol-(Z)-3-ylidene]-4,5,6,7-tetrahydro-1H-indole-3-carboxamide], 85%.
